Source: the NIST ThermoML archive (doi:10.1021/je0301489)
Numbers after ± are expanded uncertainties.

Legend:
[1] = 101.33 kPa, Liquid
[2] = refractive index (Na D-line) (dimensionless); conditions: 101.33 kPa, Liquid

SMILES | mass density ([1]; 298.15 K) | speed of sound ([1]; 298.15 K) | viscosity ([1]; 298.15 K) | mass density ([1]; 303.15 K) | viscosity ([1]; 303.15 K) | mass density ([1]; 308.15 K) | viscosity ([1]; 308.15 K) | refractive index ([2]; 298.15 K) | refractive index ([2]; 303.15 K) | refractive index ([2]; 308.15 K)
CCOC(=O)C(=O)OCC [diethyl ethanedioate] | 1072.9 ± 1.1 kg/m3 | 1276 ± 3 m/s | 1.759 ± 0.021 mPa·s | 1066.2 ± 1.1 kg/m3 | 1.581 ± 0.019 mPa·s | 1060.8 ± 1.2 kg/m3 | 1.437 ± 0.017 mPa·s | 1.4084 ± 0.0006 | 1.406 ± 0.0006 | 1.4034 ± 0.0006
CCOC(=O)c1ccccc1C(=O)OCC [diethyl phthalate] | 1115.1 ± 2.1 kg/m3 | 1446 ± 5 m/s | 7.926 ± 0.14 mPa·s | 1110.2 ± 2.1 kg/m3 | 6.129 ± 0.11 mPa·s | 1105.6 ± 2.1 kg/m3 | 4.893 ± 0.091 mPa·s | 1.5001 ± 0.0009 | 1.4978 ± 0.0009 | 1.4958 ± 0.0009
CCCCCCCCOC(=O)c1ccccc1C(=O)OCCCCCCCC [dioctyl 1,2-benzenedicarboxylate] | 980.7 ± 1 kg/m3 | 1421 ± 3 m/s | 43.03 ± 0.7 mPa·s | 977.1 ± 1 kg/m3 | 30.18 ± 0.5 mPa·s | 973.1 ± 1 kg/m3 | 21.88 ± 0.37 mPa·s | 1.485 ± 0.0025 | 1.4831 ± 0.0025 | 1.481 ± 0.0025
CCOC(=O)CC(C)=O [ethyl 3-oxobutanoate] | 1020.9 ± 1.1 kg/m3 | 1331 ± 3 m/s | 1.48 ± 0.019 mPa·s | 1014.9 ± 1.2 kg/m3 | 1.339 ± 0.017 mPa·s | 1010.2 ± 1.2 kg/m3 | 1.239 ± 0.016 mPa·s | 1.4166 ± 0.0007 | 1.4145 ± 0.0007 | 1.412 ± 0.0007
